Patent US8012471B2, “Screening and treatment methods using IGS5 enzymes of the metalloprotease family” (Abbott Healthcare Products B.V., priority 1999, dated 2011)
Entries after “also recorded” stand apart in the source; their conditions may differ. Marks after values point to notes of the source that are not given here. Starred links: 1 amine or outer side, 2 acyl side, 3 side chain; linkers in the order of their positions; H or OH if unused. Non-standard residues stand in square brackets, D forms with d. No end group written: not given here. *: point of attachment. Dpa = quench label, O=C([C@H](CNc1ccc([N+](=O)[O-])cc1[N+](=O)[O-])N[*:1])[*:2]; Mca = COc1ccc2c(CC(=O)*)cc(=O)oc2c1

Columns and labels:
[1] = target: T1, SEP (soluble secreted endopeptidase) (Mus musculus, UniProt Q9JLI3); conditions: 100 μl assay volume; 10 μg partially purified SEP; 0.5 μM substrate; 12 h, 37° C.; cited from earlier work
T1 sequence (Q9JLI3 1-765): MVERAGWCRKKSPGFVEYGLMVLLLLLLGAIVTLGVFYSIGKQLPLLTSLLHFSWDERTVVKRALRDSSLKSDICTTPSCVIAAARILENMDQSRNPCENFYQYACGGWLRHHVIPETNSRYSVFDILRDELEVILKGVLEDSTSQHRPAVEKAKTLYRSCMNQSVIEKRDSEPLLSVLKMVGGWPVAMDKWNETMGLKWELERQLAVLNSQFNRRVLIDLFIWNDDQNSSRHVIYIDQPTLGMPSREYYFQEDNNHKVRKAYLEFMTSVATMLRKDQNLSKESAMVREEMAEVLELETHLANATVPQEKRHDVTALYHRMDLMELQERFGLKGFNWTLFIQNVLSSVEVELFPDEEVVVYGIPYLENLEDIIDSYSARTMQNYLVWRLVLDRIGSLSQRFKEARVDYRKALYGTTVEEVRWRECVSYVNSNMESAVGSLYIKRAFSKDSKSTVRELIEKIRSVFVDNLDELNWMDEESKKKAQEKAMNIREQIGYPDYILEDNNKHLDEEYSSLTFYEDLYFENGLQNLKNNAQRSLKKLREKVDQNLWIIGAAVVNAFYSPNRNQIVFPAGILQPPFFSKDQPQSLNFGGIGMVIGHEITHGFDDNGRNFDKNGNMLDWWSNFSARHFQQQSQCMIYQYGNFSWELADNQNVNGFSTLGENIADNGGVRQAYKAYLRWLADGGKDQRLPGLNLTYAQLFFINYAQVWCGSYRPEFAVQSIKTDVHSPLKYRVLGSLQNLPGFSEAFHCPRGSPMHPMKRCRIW

[2] = target: T2, IGS5 polypeptide (His6-tagged IGS5 ectodomain) (Homo sapiens, UniProt Q495T6, V306M); test: Hydrolysis of vasoactive peptides and PACAP(1-27) by IGS5 polypeptide (HPLC); format: biochemical; conditions: for % Hydrolysis by IGS5 Polypeptide: 0.5 μM substrate, 2 h, 37° C.
T2 construct: made in house; host or cells: Spodoptera frugiperda Sf9 (baculovirus IGBV73)
T2 sequence (Q495T6 with tags, fused parts or gaps V306M): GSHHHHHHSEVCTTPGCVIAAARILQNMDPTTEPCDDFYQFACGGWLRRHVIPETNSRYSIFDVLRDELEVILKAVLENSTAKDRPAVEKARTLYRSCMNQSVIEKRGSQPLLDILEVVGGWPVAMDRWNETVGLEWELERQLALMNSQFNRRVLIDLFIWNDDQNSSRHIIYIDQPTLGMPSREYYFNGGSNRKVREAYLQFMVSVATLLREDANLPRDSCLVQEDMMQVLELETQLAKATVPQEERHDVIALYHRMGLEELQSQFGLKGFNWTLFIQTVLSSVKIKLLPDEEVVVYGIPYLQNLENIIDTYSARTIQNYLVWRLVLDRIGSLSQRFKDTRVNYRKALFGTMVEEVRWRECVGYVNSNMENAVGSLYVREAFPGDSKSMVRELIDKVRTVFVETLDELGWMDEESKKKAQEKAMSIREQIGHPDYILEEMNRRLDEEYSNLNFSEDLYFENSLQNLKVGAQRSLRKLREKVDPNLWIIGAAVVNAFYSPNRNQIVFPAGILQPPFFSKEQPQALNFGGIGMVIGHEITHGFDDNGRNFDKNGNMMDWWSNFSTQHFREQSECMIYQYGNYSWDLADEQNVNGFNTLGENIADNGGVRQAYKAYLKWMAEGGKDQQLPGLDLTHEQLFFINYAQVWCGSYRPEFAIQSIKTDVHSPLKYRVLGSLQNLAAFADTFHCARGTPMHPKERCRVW
Experimental: (§1) The enzymatic activity of IGS5 polypeptides of the invention was tested with regard to the metabolism of biologically active peptides. In particular it was tested whether these IGS5 polypeptides may act on a variety of vasoactive peptides known in the state of the art e.g. such like atrial natriuretic peptide (ANP), bradykinin, big endothelin (Big ET-1), endothelin (ET-1), substance P and angiotensin-1. In the context of the present invention in particular it was tested whether the IGS5 ectodomain, which is a novel human metalloprotease, hydrolyzes said vasoactive peptides. For comparison the assay was also performed for a known member of the metalloprotease family which was described earlier as soluble secreted endopeptidase (SEP) by Ikeda, Emoto et al. (J. Biol. Chem., Vol. 274 (1999): pp. 32469-32477). Furthermore, it was tested whether the activity of IGS5 to convert a Big-ET-1 analogue (the so-called 17 aa Big-ET) may be inhibited by reference compounds that are used to determine the inhibition properties with regard to enzymes having ECE and/or NEP-characteristics. […] It was then checked whether the activity of IGS5 to convert PACAP(1-27) may be inhibited by a compound known to be a IGS5 inhibitor. The compound used to test the inhibition of IGS5-activity on PACAP(1-27) was the active metabolite of (3S,2′R)-3-{1-[2′-(ethoxycarbonyl)-4′-phenylbutyl]-cyclopentane-1-carbonylamino}-2,3,4,5-tetrahydro-2-oxo-1H-1-benzazepine-1-acetic acid (compound Ia-2 from WO 02/094176).
The enzymatic reaction was subsequently terminated by heating to 95° C. for 5 min. After centrifugation (Heraeus Biofuge B, 3 min) the supernatant was subjected to HPLC
(§2) In order to separate the remaining substrate from the cleavage products reversed phase HPLC technique was used with a CC 125/4 Nucleosil 300/5 C18 RP column and a CC 8/4 Nucleosil 100/5 C18 precolumn (commercially available from Macherey-Nagel, Duren, Germany). Thus, 60 μl of the reaction samples obtained in Example 7B were injected into the HPLC, and the column was eluted at a flow rate of 1 ml/min by applying the following gradient and solutions: […]
(§3) Peptides were detected by absorbance at 214 nm (UV spectroscopy) and/or by fluorescence with an excitation wavelength of 328 nm and an emission wavelength of 393 nm.
% Hydrolysis: For detection of substrate cleavage, the percentage of hydrolysis was calculated by directly comparing the substance peak areas in HPLC traces of the sample without addition of any IGS5 enzyme activity (blank) and of the samples with addition of IGS5 enzyme (sample). % hydrolysis was calculated on basis of the respective peak areas. % hydrolysis=100*(1−(Asample/Ablank))

[3] = target: T2, IGS5 polypeptide (His6-tagged IGS5 ectodomain); test: Enzyme inhibition assay: IGS5 conversion of the Big-ET-1 analogue 17 aa Big-ET (HPLC); format: biochemical; conditions: for Inhibition of IGS5 (result in words): conversion of Big-ET-1 analogue 17 aa Big-ET; for IC50: substrate 17 aa Big-ET, 60 min, 37° C., read-out: Inhibition of IGS5 polypeptide's activity to convert the Big-ET-1 analogue 17 aa Big-ET, IC50
Experimental: as §1
All test compounds were dissolved in DMSO at 10 mM and were further diluted with assay buffer.
A quantity of 70 μl, of the assay buffer, of 10 μl enzyme working solution (10 μg/ml) and of 10 μl test compound solution were mixed in an Eppendorf vial and preincubated at 37° C. for 15 minutes. Then, 10 μl substrate stock solution was added and the reaction mixture was incubated at 37° C. for 60 minutes to allow for enzymatic hydrolysis. Subsequently the enzymatic reaction was terminated by heating at 95° C. for 5 minutes. After centrifugation (Heraeus Biofuge B, 3 min) the supernatant was subjected to HPLC analysis.
as §2, §3
% Inhibition: The increasing fluorescence signal of the HPLC-peak of the peptide with the unquenched Mca-fluorophor after hydrolysis was taken as the basis for any calculation. This signal was compared for the samples with and without inhibitor and % inhibition was calculated on basis of the respective peak areas. If non labeled peptide substrates were used, basis of the calculation of % inhibition was the peak area of the remaining undegraded peptide substrate for an inhibitory test compound containing sample (inhib) in comparison to samples containing only peptide without addition of any IGS5 enzyme activity (blank) and to samples containing peptide and enzyme without inhibitor (control) according to the following equation % inhib=100*((Ainhib−Acontrol)/(Ablank−Acontrol)) All samples were run in duplicate and mean values were used. A standard inhibitor (10 nM and 100 nM Phosphoramidon) and/or a solvent control (0.1%) was added to each assay run.

[4] = 100 μl assay volume, 100 ng IGS5 polypeptide

Row | Molecule | % Hydrolysis by SEP (Ikeda, Emoto et al., 1999) [1] [%] | % Hydrolysis by IGS5 Polypeptide [2, 4] | Hydrolysis by IGS5 in vitro (result in words) [2] | Inhibition of IGS5 (result in words) [3] | IC50 [3] [nM] | also measured
1 | CC[C@H](C)[C@@H]1NC(=O)[C@H](CCCNC(=N)N)NC(=O)[C@H](CC(=O)O)NC(=O)[C@H](CCSC)NC(=O)[C@H](CCCNC(=N)N)NC(=O)CNC(=O)CNC(=O)[C@H](Cc2ccccc2)NC(=O)[C@@H](NC(=O)[C@H](CO)NC(=O)[C@H](CO)NC(=O)[C@H](CCCNC(=N)N)NC(=O)[C@H](CCCNC(=N)N)NC(=O)[C@H](CC(C)C)NC(=O)[C@@H](N)CO)CSSC[C@@H](C(=O)N[C@@H](CC(N)=O)C(=O)N[C@@H](CO)C(=O)N[C@@H](Cc2ccccc2)C(=O)N[C@@H](CCCNC(=N)N)C(=O)N[C@@H](Cc2ccc(O)cc2)C(=O)O)NC(=O)CNC(=O)[C@H](CC(C)C)NC(=O)CNC(=O)[C@H](CO)NC(=O)[C@H](CCC(N)=O)NC(=O)[C@H](C)NC(=O)CNC1=O [ANP, atrial natriuretic peptide] | >95 | 5% | hydrolyze | – | – | % Hydrolysis by IGS5 Polypeptide ([2]; 500 ng IGS5 polypeptide): 80%
2 | O=C(O)C(Cc1ccc2c(c1)oc1ccccc12)NCP(=O)(O)O (centres unmarked) [CGS-35066] | – | – | – | not inhibited; also recorded: no inhibition | 1300 | –
3 | CC[C@H](C)[C@H](NC(=O)[C@H](CC(=O)O)NC(=O)[C@H](CC(C)C)NC(=O)[C@H](Cc1c[nH]cn1)NC(=O)[C@@H]1CSSC[C@H](N)C(=O)N[C@@H](CO)C(=O)N[C@H]2CSSC[C@H](NC(=O)[C@H](CCC(=O)O)NC(=O)[C@H](CCCCN)NC(=O)[C@H](CC(=O)O)NC(=O)[C@H](CCSC)NC(=O)[C@H](CC(C)C)NC(=O)[C@H](CO)NC(=O)[C@H](CO)NC2=O)C(=O)N[C@@H](C(C)C)C(=O)N[C@@H](Cc2ccc(O)cc2)C(=O)N[C@@H](Cc2ccccc2)C(=O)N1)C(=O)N[C@H](C(=O)N[C@@H](Cc1c[nH]c2ccccc12)C(=O)O)[C@@H](C)CC [ET-1, endothelin] | 92 | <30% | hydrolyze | – | – | –
4 | CC(C)C[C@H](NP(=O)(O)O[C@@H]1O[C@@H](C)[C@H](O)[C@@H](O)[C@H]1O)C(=O)N[C@@H](Cc1c[nH]c2ccccc12)C(=O)O [Phosphoramidon] | – | – | – | inhibited; also recorded: inhibition | 18 | –
5 | O=C(O)CNC(=O)C(CS)Cc1ccccc1 (centres unmarked) [Thiorphan] | – | – | – | not efficiently inhibited; also recorded: no inhibition | > 1000 | –
6 | Mca-Asp-Ile-Ala-Trp-Phe-Dpa-Thr-Pro-Glu-His-Val-Val-Pro-Tyr-Gly-Leu-Gly-COOH (Mca-DIAWF[Dpa]TPEHVVPYGLG-OH; SMILES CC[C@H](C)[C@H](NC(=O)[C@H](CC(=O)O)NC(=O)Cc1cc(=O)oc2cc(OC)ccc12)C(=O)N[C@@H](C)C(=O)N[C@@H](Cc1c[nH]c2ccccc12)C(=O)N[C@@H](Cc1ccccc1)C(=O)N[C@@H](CNc1ccc([N+](=O)[O-])cc1[N+](=O)[O-])C(=O)N[C@H](C(=O)N1CCC[C@H]1C(=O)N[C@@H](CCC(=O)O)C(=O)N[C@@H](Cc1c[nH]cn1)C(=O)N[C@H](C(=O)N[C@H](C(=O)N1CCC[C@H]1C(=O)N[C@@H](Cc1ccc(O)cc1)C(=O)NCC(=O)N[C@@H](CC(C)C)C(=O)NCC(=O)O)C(C)C)C(C)C)[C@@H](C)O) [17 aa Big ET 1] | – | 41% | – | – | – | –
7 | RPPGFSPFR [Bradykinin, bradykinin] | – | 100% | – | – | – | % Hydrolysis by IGS5 Polypeptide ([2]; 10 ng IGS5 polypeptide): 62%
8 | angiotensin-1 (DRVYIHPFHL) [Angiotensin 1] | >95 | 15*** % | – | – | – | Formation of angiotensin II on degradation by IGS5 [2]: ***degradation of angiotensin I does not result in formation of angiotensin II
9 | big endothelin (CSCSSLMDKECVYFCHLDIIWVNTPEHVVPYGLGSPRS) [Big ET-1] | 42 | – | hydrolyze | – | – | –
10 | substance P | >95 | 100% | – | – | – | –
